We go through 1 compound from US9034906B2, “EP4 agonist” (Asahi Glass Company, Limited, priority 2008, dated 2015).

Where only a bound is given, the exact number is not on record here.

Data set [1] can be described thus: In vitro metabolic stability: NADPH-independent β oxidation reaction in rat liver mitochondria fraction. In kind it is in vitro ADME. The conditions noted are these: 37° C., 30 min, tested as isomer mixtures, average±SD of 3 experiments. The procedure:
A mixture of the compound F and compound J of the present invention described in Table 1 (F:J=52:41, synthesized in Example 14), and a mixture of compounds wherein the tetrazole groups at C-1 of compound F and compound J are respectively substituted by carboxylic acid (referred to as carboxylate form, F:J=54:34, synthesized in Example 15) were tested.
First, a mitochondria fraction was prepared from the rat liver according to the following Reference A. Then, in reference to the method of […] et al. described in the following References B and C, an NADPH-independent β oxidation reaction was studied. The reaction was carried out at 37° C. for 30 min, and stopped with a methanol solution containing a suitable internal standard substance. Each compound was quantified by the internal standard method using a high performance liquid chromatography mass spectrometry apparatus (LC-MS/MS). The compound residual ratio after metabolic reaction of compounds F, J and each carboxylate form thereof in rat mitochondria fraction is shown in the following Table 2 in average±standard deviation of 3 experiments.

Another data set has as its target T1, human EP4 (Homo sapiens, UniProt P35408).
T1 construct: expressed in transfected cells; host or cells: COS-7 (membranes)
The data set can be described thus: Receptor affinity, tritium-labeled PGE2 binding to membranes of transfected COS-7 cells. The conditions noted are these: binding affinity ratio. The procedure:
PG receptor affinity of compound F and compound J of the present invention was evaluated. Compound F used was one synthesized in Example 9, and compound J was prepared by separating and purifying the compound synthesized in Example 14 with a column (the same preparations were used in the following Examples). COS-7 cells were transfected with the genes of mouse EP4, human EP1-4 or human IP to overexpress the receptor and then the cell membranes were collected. […] The dissociation constant Kd value was obtained and inhibition constant Ki value of each test compound was determined in a conventional method.

The nature of data set [2]: Effect on blood pressure and heart rate in mice. In kind it is in vivo, mouse. The conditions noted are these: ICR mice, intravenous 0.01 mg/kg, isoflurane anesthesia. The procedure: Male ICR mice (5 weeks old, Japan SLC) were purchased, acclimated for 6 days and used for the test. The animals were treated and measured under isoflurane inhalation anesthesia (anesthesia introduced at 2.5%, maintained at 1.8-2.1%), while body temperature was kept at 37° C. with a Heat Controller (ATC-402, Unique Medical Co., Ltd.). A catheter for administration of test compounds was inserted into the left femoral vein, and another catheter was inserted into the right femoral artery and connected to a pressure transducer to record each parameter of hemodynamics.
Compound F, the carboxylate form of compound F and BPS were intravenously administered at a dose of 0.01 mg/5 mL/kg, and the effect on the mean blood pressure and heart rate was evaluated with computer software for the analysis of hemodynamics (Fluclet, Dainippon Sumitomo Pharma Co., Ltd.). To the control group was intravenously administered a solvent (1.2% ethanol solution) at 5 mL/kg in the same manner. The results are expressed as a ratio of change in each parameter before and after the drug administration. Three to 6 animals were used for each group, and the results were expressed as average±standard deviation.

The test system of data set [3] is ethanol-induced gastric mucosal injury. The data set can be described thus: Ethanol-induced gastric mucosal injury model in rats. In kind it is in vivo, rat. Conditions: SD rats, 30 min before ethanol. The text has this: The suppressive effect of compound F on gastric mucosal injury was investigated in ethanol-induced gastric mucosal injury model in rats. This model is frequently used as an animal model of human acute gastritis associated with congestive mucosal injury (Reference K).
Male SD rats (7 weeks old, Charles River) were purchased through Oriental BioService Inc., acclimated for 1 week and used for the study. The rats were grouped based on the body weight, placed in a clean cage set with a wire mesh floor one day before the study, fasted for 19 hr (without water for last 3 hr), and orally administered with ethanol (special grade, Nacalai Tesque, Lot No. V8A5862, 1.5 mL) in all groups to induce gastric mucosal injury. Compound F was orally administered at doses of 0.01, 0.1 and 1 mg/kg 30 min before induction of gastric mucosal injury at a volume of 5 mL/kg. To the control group was orally administered a solvent (1 vol % ethanol solution) at 5 mL/kg in the same manner. Eight animals were used for each group.
The rats were bled to death from the abdominal aorta and caudal vena cava under ether anesthesia after 1 hr from the ethanol administration, and the stomach was isolated. […] The length and width of each ulcer were measured under a stereomicroscope, the area was calculated, and the sum thereof was taken as the total ulcer area.

In data set [4] the test system is indomethacin-induced small intestinal injury. The data set can be described thus: Indomethacin-induced small intestinal injury model in rats. In kind it is in vivo, rat. Conditions: SD rats, 30 min before and 6 hr after indomethacin. The text has this:
The suppressive effect of compound F on small intestinal injury was investigated using indomethacin-induced small intestinal injury model in rats. Administration of non-steroidal anti-inflammatory drugs (NSAIDs) is known to induce hemorrhagic injury in the small intestine of human.
Male SD rats, 7 weeks old (Charles River) were purchased, acclimated for 1 week and used for the study. The rats were grouped based on the body weight and subcutaneously administered with indomethacin (SIGMA, Lot No. 19F0018) at 15 mg/5 mL/kg to all groups to induce small intestinal injury. Compound F at doses of 0.01, 0.1 and 1 mg/kg was orally administered at a volume of 5 mL/kg 30 min before and 6 hr after the subcutaneous administration of indomethacin. To the control group was orally administered a solvent (1 vol % ethanol solution) at 5 mL/kg in the same manner. Eight animals were used for each group.
The rats were intravenously administered with 2 mL of 10 mg/mL Evans blue solution under ether anesthesia 23.5 hr after the indomethacin administration. After 30 min, the rats were bled to death from the abdominal aorta and caudal vena cava under ether anesthesia and the small intestine was isolated. […] The length and width of each ulcer were measured under a stereomicroscope, the area was calculated, and the sum thereof was taken as the total ulcer area.

For another data set, the system named is eye. The data set can be described thus: Local irritative effect on the eye in rabbits. Conditions: rabbit, single ocular instillation. In kind it is in vivo. How it is done:
Japanese white rabbits (male, 10 weeks old, BIOTEC Co., Ltd.) were purchased, acclimated for 1 week and used for the study. Compound F solution (0.01 w/v %) was instilled once into the cornea of both eyes at a volume of 50 μL/eye with a micropipette. The intraocular pressure of the right eye was measured and the local irritative effect on the eye was evaluated using the left eye. After surface anesthesia with oxybupranol (Benoxil 0.4% instillation solution), the intraocular pressure was measured before ocular instillation and 1, 2, 3, 4, 6 and 8 hr after the instillation using a pneumatonometer (Alcon Ltd.). In addition, the local irritative effect on the eye was evaluated by scoring conjunctival congestion, conjunctival edema, cornea opacity, iris congestion, excretion and eye closure performance. For the evaluation, phosphate buffer was used for the solvent control group, and isopropyl unoprostone (Rescula eye drops, Santen Pharmaceutical Co., Ltd.) was used for comparison. Six animals were used for each group and the results were expressed as average.

T1 sequence (P35408 whole entry): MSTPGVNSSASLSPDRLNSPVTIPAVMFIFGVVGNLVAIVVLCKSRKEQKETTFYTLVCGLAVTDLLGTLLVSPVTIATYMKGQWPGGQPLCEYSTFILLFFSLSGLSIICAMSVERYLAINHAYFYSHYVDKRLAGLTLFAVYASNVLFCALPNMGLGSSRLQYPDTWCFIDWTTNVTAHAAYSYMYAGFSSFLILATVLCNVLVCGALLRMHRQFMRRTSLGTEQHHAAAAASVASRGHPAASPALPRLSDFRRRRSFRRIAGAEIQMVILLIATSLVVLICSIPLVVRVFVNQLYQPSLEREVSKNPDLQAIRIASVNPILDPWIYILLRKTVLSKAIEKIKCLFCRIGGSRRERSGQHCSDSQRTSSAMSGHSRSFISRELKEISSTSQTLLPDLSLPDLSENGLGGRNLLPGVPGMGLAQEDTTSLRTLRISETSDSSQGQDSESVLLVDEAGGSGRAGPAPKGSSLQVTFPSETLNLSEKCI

For the compound `Cc1cccc([C@@H](C)[C@H](O)/C=C/[C@@H]2[C@@H]3[C@H](C[C@H]2O)O/C(=C\CCCc2nnn[nH]2)C3(F)F)c1` [Compound F, 4-[(Z)-(1S,5R,6R,7R)-6-[(1E,3R,4R)-3-hydroxy-4-(m-tolyl)-1-pentenyl]-7-hydroxy-2-oxa-4,4-difluoro-bicyclo[3.3.0]octan-3-ylidene]-1-(tetrazol-5-yl)butane], the “Residual ratio of parent compound after β-oxidation reaction” value in data set [1] is 91.6 ± 6.8%. Also, the “Affinity for human EP4 higher than to human EP1, EP2 and EP3” value on human EP4 was not below 60 fold. At human EP4, the “Affinity for human EP4 higher than to human IP” value is recorded as not below 100 fold. The “Effect on heart rate” value in data set [2] is “little effect”. Also, in data set [2], the “Maximum decrease ratio of mean blood pressure” value was 16.2%. For the same compound, the “Effect on total ulcer area (stomach)” value is “almost completely reduced the area” in data set [3] (oral 1 mg/kg); “significantly reduced the total ulcer area in a dose-dependent manner” in data set [3] (oral, from 0.01 mg/kg (0.01, 0.1 and 1 mg/kg)). Also, the “Effect on total ulcer area (small intestine)” value is recorded as “completely reduced the area” in data set [4] (oral 1 mg/kg) and “significantly reduced the ulcer area in a dose-dependent manner” in data set [4] (oral, from 0.1 mg/kg). Further, in the data set on eye, the “Local irritant effect on the eye” value is “conjunctival edema and eye closure were observed 1 hr after the instillation in some animals”.
